Like-named read-outs stand apart in the source and are kept apart here.
Tests used:
Format in all cases: biochemical
Odc1p [1] = target: T1, Odc1p (Saccharomyces cerevisiae, UniProt Q03028); assay: Dependence on internal substrate of [14C]oxoglutarate uptake into proteoliposomes reconstituted with recombinant Odc1p; settings: Odc1p; for [14C]oxoglutarate transport: proteoliposomes preloaded with 20 mM internal substrate, 0.6 mM [14C]oxoglutarate, 45 seconds; for [14C]oxoglutarate uptake with the internal substrate (in words): proteoliposomes preloaded with various substrates
T1 construct: made in house; host or cells: S. cerevisiae odc1Δodc2Δ (YPH499 background) carrying pYES2-based pODC1; purified from mitochondria on Ni-NTA agarose
T1 sequence (Q03028 1-310): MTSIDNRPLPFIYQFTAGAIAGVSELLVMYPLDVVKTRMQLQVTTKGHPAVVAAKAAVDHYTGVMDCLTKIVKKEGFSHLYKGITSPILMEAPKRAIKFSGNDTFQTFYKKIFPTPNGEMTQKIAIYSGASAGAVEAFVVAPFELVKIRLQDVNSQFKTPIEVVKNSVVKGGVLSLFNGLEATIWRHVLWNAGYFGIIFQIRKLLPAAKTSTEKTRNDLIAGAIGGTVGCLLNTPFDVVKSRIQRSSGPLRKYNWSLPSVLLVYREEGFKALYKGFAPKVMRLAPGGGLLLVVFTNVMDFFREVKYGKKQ
Description: (§1) Reconstitution of the ODC proteins into liposomes—Purified ODC proteins were reconstituted by cyclic removal of the detergent with a hydrophobic column (13). The composition of the initial mixture used for reconstitution was: 200 μl of purified isoform (0.3-0.4 μg of protein), 70 μl of 10% Triton X-114, 100 μl of 10% phospholipids in the form of sonicated liposomes, 20 mM oxoglutarate (except where otherwise indicated), 10 mM Pipes (pH 7.0), 0.7 mg of cardiolipin (Sigma) and water to a final volume of 700 μl. These components were mixed thoroughly, and the mixture was recycled 13 times through an Amberlite column (Supelco) (3.0 cm×0.5 cm) preequilibrated with a buffer containing 10 mM Pipes (pH 7.0) and with the substrate at the same concentration as in the starting mixture. All operations were performed at 4° C., except the passages through Amberlite, which were carried out at room temperature.
(§2) External substrate was removed from proteoliposomes on a Sephadex G-75 column preequilibrated with buffer F (50 mM NaCl and 10 mM PIPES, pH 7.0). Transport at 25° C. was started by adding [^14C]oxoglutarate (unless otherwise indicated) to the proteoliposomes, and terminated by addition of 30 mM pyridoxal 5′-phosphate and 10 mM bathophenanthroline (the “inhibitor-stop” method (13)). In controls, inhibitors were added with the labelled substrate. The external radioactivity was removed on Sephadex G-75 and the internal radioactivity was measured. […] The initial rate of transport was calculated in mmol/min per g protein from the time course of isotope equilibration (13). Various other transport activities were also assayed by the inhibitor-stop method. For efflux measurements, the internal substrate pool of the proteoliposomes was made radioactive by carrier-mediated exchange equilibration (13) with 0.1 mM [^14C]oxoglutarate added at high specific radioactivity. After 60 min, the residual external radioactivity was removed by passing the proteoliposomes again through a column of Sephadex G-75. Efflux was started by adding unlabelled external substrate or buffer F alone and terminated by adding the inhibitors indicated above.
(§3) The substrate specificity of purified Odc1p and Odc2p was investigated further by measuring the uptake of [^14C]oxoglutarate into proteoliposomes which had been preloaded with various substrates.
(§4) Proteoliposomes were preloaded internally with various substrates (concentration, 20 mM). Transport was started by adding [^14C]oxoglutarate (final concentration, 0.6 mM) and terminated after 45 seconds.

Odc1p [2] = target: T1, Odc1p; assay: Kinetic constants (Km, Vmax, Ki) of recombinant purified Odc1p in proteoliposomes
Description: as §2
(§5) The kinetic constants of the recombinant purified Odc1p and Odc2p were determined by measuring the initial transport rate at various external [^14C]oxoglutarate concentrations, in the presence of a constant saturating internal concentration of 20 mM oxoglutarate.
(§6) The values were calculated from Lineweaver-Burk plots of the rate of [^14C]oxoglutarate versus substrate concentrations. The competing substrates at appropriate constant concentrations were added together with 0.1-2.0 mM [^14C]oxoglutarate to proteoliposomes containing 20 mM oxoglutarate and reconstituted with recombinant Odc1p or Odc2p. The data represent the means ±S.D. of at least three different experiments. n.d., not determined.

Odc2p [3] = target: T2, Odc2p (Saccharomyces cerevisiae, UniProt Q99297); assay: Kinetic constants (Km, Vmax, Ki) of recombinant purified Odc2p in proteoliposomes
T2 construct: made in house; host or cells: S. cerevisiae odc1Δodc2Δ (YPH499 background) carrying pYES2-based pODC2; purified from mitochondria on Ni-NTA agarose
T2 sequence (Q99297 1-307): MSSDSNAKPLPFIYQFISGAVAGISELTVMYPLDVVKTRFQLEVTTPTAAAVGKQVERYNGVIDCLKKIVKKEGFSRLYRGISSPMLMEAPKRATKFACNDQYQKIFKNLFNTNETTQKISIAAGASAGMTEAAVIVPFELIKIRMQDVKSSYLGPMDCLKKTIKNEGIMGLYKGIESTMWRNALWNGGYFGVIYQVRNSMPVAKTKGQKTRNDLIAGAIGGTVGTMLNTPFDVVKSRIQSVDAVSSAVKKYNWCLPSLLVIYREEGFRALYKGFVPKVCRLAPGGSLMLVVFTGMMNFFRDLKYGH
Description: as §2, §5, §6

Odc2p [4] = target: T2, Odc2p; assay: Dependence on internal substrate of [14C]oxoglutarate uptake into proteoliposomes reconstituted with recombinant Odc2p; settings: Odc2p; for [14C]oxoglutarate transport: proteoliposomes preloaded with 20 mM internal substrate, 0.6 mM [14C]oxoglutarate, 45 seconds; for [14C]oxoglutarate uptake with the internal substrate (in words): proteoliposomes preloaded with various substrates
Description: as §1, §2, §3, §4

Odc1p [5] = target: T1, Odc1p; assay: Effect of inhibitors and external compounds on the [14C]oxoglutarate/oxoglutarate exchange by proteoliposomes reconstituted with Odc1p; settings: Odc1p; for effect of non-radioactive potential substrates on the rate of oxoglutarate uptake (in words): added with 0.4 mM [14C]oxoglutarate, 4.0 mM in FIG. 5, partly data not shown
Description: FIG. 5. Effect of dicarboxylates and 2-oxodicarboxylates with different carbon chain length on the rate of [^14C]oxoglutarate uptake into proteoliposomes reconstituted with recombinant Odc1p. Proteoliposomes were preloaded with 20 mM oxoglutarate and reconstituted with recombinant Odc1p. Transport was initiated by the addition of 0.4 mM [^14C]oxoglutarate and terminated after 45 seconds. Oxalate, malonate, succinate, glutarate, adipate, pimelate, suberate (▪) and the corresponding 2-oxoacids (●) were added simultaneously with [1^4C]oxoglutarate at 4.0 mM concentration.
as §1, §2
(§7) In addition, the ability of non-radioactive potential substrates to inhibit the oxoglutarate/oxoglutarate exchange was examined.
Proteoliposomes were preloaded internally with 20 mM oxoglutarate and transport was initiated by the addition of 0.4 mM [^14C]oxoglutarate.

Odc2p [6] = target: T2, Odc2p; assay: Effect of inhibitors and external compounds on the [14C]oxoglutarate/oxoglutarate exchange by proteoliposomes reconstituted with Odc2p; settings: Odc2p, data not shown
Description: as §1, §2, §7
Proteoliposomes were preloaded internally with 20 mM oxoglutarate and transport was initiated by the addition of 0.4 mM [^14C]oxoglutarate. The incubation time was 45 seconds. Thiol reagents and α-cyanocinnamate were added 2 min before the labelled substrate; the other inhibitors and external substrates were added together with [^14C]oxoglutarate. The final concentration of the inhibitors was 4 mM, except for mercurials (10 μM), carboxyatractyloside (0.1 mM), N-ethylmaleimide and α-cyanocinnamate (2 mM).

Odc1p [7] = target: T1, Odc1p; assay: Homoexchange of other substrates in proteoliposomes reconstituted with Odc1p; settings: internal concentration 10 mM, external concentration 1 mM
Description: as §2
(§8) In order to obtain further information about the mechanism of transport catalyzed by Odc1p and Odc2p, the efflux of [^14C]oxoglutarate from pre-labelled active proteoliposomes was investigated as it provides a more convenient assay for unidirectional transport (13).

Odc2p [8] = target: T2, Odc2p; assay: Homoexchange of other substrates in proteoliposomes reconstituted with Odc2p; settings: internal concentration 10 mM, external concentration 1 mM
Description: as §2, §8

[9] = read-out: transport affinity (Km) for the oxoglutarate/oxoglutarate exchange
[10] = Odc1p, Lineweaver-Burk plots, 0.1-2.0 mM [14C]oxoglutarate, 20 mM internal oxoglutarate, means ±S.D., read-out: Ki (competition with [14C]oxoglutarate uptake)
[11] = Odc2p, Lineweaver-Burk plots, 0.1-2.0 mM [14C]oxoglutarate, 20 mM internal oxoglutarate, means ±S.D., read-out: Ki (competition with [14C]oxoglutarate uptake)

Row | SMILES | [14C]oxoglutarate transport (Odc1p [1]) | [14C]oxoglutarate uptake with the internal substrate (in words) (Odc1p [1]) | [14C]oxoglutarate transport (Odc2p [4]) | [14C]oxoglutarate uptake with the internal substrate (in words) (Odc2p [4]) | homoexchange catalyzed by the proteoliposomes (in words) (Odc1p [7]) | homoexchange catalyzed by the proteoliposomes (in words) (Odc2p [8]) | Ki (Odc1p [2]; [10]) | Ki (Odc2p [3]; [11]) | further results
1 | O=C(O)CCC(=O)C(=O)O [2-Oxoglutarate] | 112.5 mmol/min per g protein | taken up efficiently | – | – | – | – | – | – | specific activity (Vmax) for the oxoglutarate/oxoglutarate exchange (Odc1p [2]; Odc1p, 25° C., 20 mM internal oxoglutarate, 24 experiments): 252±53 mmol/min per g protein; Km (Odc1p [2]; [9]): 520 ± 80 µM; specific activity (Vmax) for the oxoglutarate/oxoglutarate exchange (Odc2p [3]; Odc2p, 25° C., 20 mM internal oxoglutarate, 16 experiments): 73±17 mmol/min per g protein; Km (Odc2p [3]; [9]): 470 ± 70 µM
2 | O=C(O)CC(O)(CC(=O)O)C(=O)O [Citrate] | 28.6 mmol/min per g protein | much lower activity | 8.0 mmol/min per g protein | much lower activity | – | – | – | – | Ki (Odc1p [2]): 6 ± 0.8 mM; Ki (Odc2p [3]): 5.9 ± 0.6 mM
3 | NC(=O)CC[C@H](N)C(=O)O [glutamine] | – | no exchange | – | no exchange | did not catalyze homoexchanges | did not catalyze homoexchanges | – | – | effect of non-radioactive potential substrates on the rate of oxoglutarate uptake (in words) (Odc1p [5]): no effect; effect of non-radioactive potential substrates on the rate of oxoglutarate uptake (in words) (Odc2p [6]): no effect
4 | O=C(O)CCCC(=O)C(=O)O [2-Oxoadipate] | 85.0 mmol/min per g protein | taken up efficiently | 22.1 mmol/min per g protein | taken up efficiently | – | – | 0.26 ± 0.03 mM | 0.31 ± 0.04 mM | –
5 | O=C(O)CCCCC(=O)C(=O)O [2-Oxopimelate] | 71.6 mmol/min per g protein | taken up efficiently | 14.8 mmol/min per g protein | taken up efficiently | – | – | 1.83 ± 0.2 mM | 1.64 ± 0.18 mM | –
6 | O=C(O)C[C@H](O)C(=O)O [L-malate] | 56.4 mmol/min per g protein | taken up efficiently | 11.4 mmol/min per g protein | taken up efficiently | – | – | 1.32 ± 0.13 mM | 1.37 ± 0.16 mM | –
7 | CC(C)CC(=O)C(=O)O [2-oxoisocaproate] | – | no exchange | – | no exchange | did not catalyze homoexchanges | did not catalyze homoexchanges | – | – | effect of oxomonocarboxylates on the rate of uptake of 0.4 mM oxoglutarate (in words) (Odc1p [5]; 8 mM, 20 times greater than the substrate, data not shown): did not influence; effect of oxomonocarboxylates on the rate of uptake of 0.4 mM oxoglutarate (in words) (Odc2p [6]; 8 mM, 20 times greater than the substrate): did not influence
8 | C[N+](C)(C)CC(O)CC(=O)[O-] (centres unmarked) [carnitine] | – | no exchange | – | no exchange | did not catalyze homoexchanges | did not catalyze homoexchanges | – | – | –
9 | O=C(O)CC(=O)C(=O)O [Oxaloacetate] | – | – | – | – | – | – | > 15 mM | > 15 mM | –
10 | O=C(O)CCC(=O)O [Succinate] | 19.1 mmol/min per g protein | much lower activity | 4.3 mmol/min per g protein | much lower activity | – | – | > 15 mM | – | effect of non-radioactive potential substrates on the rate of oxoglutarate uptake (in words) (Odc1p [5]): virtually no effect; effect of non-radioactive potential substrates on the rate of oxoglutarate uptake (in words) (Odc2p [6]): virtually no effect
11 | Nc1ncnc2c1ncn2[C@@H]1O[C@H](COP(=O)(O)OP(=O)(O)O)[C@@H](O)[C@H]1O [ADP] | – | no exchange | – | no exchange | did not catalyze homoexchanges | did not catalyze homoexchanges | – | – | –

From patent US20020155192A1, “Yeast transport isoforms” (priority 2000, published 2002)
